Test results published in ChEMBL document CHEMBL1152076, “Alteration of Na+ permeability in human erythrocytes as studied by 23Na-NMR and inhibition of the kidney Na+,K+-ATPase activities with saponins: Interaction of Gleditsia saponins with human erythrocyte membranes” (Bioorg Med Chem Lett, 1995).

Biological target: Sodium/potassium-transporting ATPase (Rattus norvegicus)
Assay: Inhibitory activity against rat kidney Na+/K+ ATPase was determined by fiske subbarow method

Structure (SMILES): C=C[C@@](C)(O)CC/C=C(\C)C(=O)OC1C(COCCCC2OC(CCCOOC(=O)C34CCC(C)(C)CC3C3=CCC5[C@@]6(C)CCC(OC7OC(CCOCCC8OCC(O)C(O)C8OC8OCC(O)C(O)C8O)C(O)C(O)C7O)C(C)(C)C6CC[C@@]5(C)[C@]3(C)C[C@H]4O)C(OCC3OC(C)C(OCCCCCCCCC4OCC(O)C(OC5OCC(O)C(O)C5O)C4O)C(O)C3O)C(O)C2O)OC(C)C(O)C1OC(=O)/C(=C/CC[C@](C)(O)C=C)CO (stereo partly specified)
- IC50: 400 µM
